Holding throughout (format): biochemical
For one assay, the system named is MYC. Briefly: In vitro transcription-translation (IVTT) assay, MYC reporter. The following applies: IVTT assay, HeLa S3 lysate, MYC reporter, normalized sfGFP/mCherry ratio; half-log dilutions 30 μM-0.1 μM, 2 hrs at 30° C. The method, boiled down:
(§1)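 Reporter: mCherry, P2A, then 3×FLAG-target peptide-sfGFP fusion, IRES-initiated; HeLa S3 lysate IVTT; cpd dilutions 30 μM−0.1 μM half-log in 100% DMSO (dilution-plate conc); DNA added last; 2 h, 30° C; PBS quench.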

A further assay has as its system CCND1. Briefly: In vitro transcription-translation (IVTT) assay, CCND1 reporter. The note with it: IVTT assay, HeLa S3 lysate, sfGFP/mCherry ratio. The method, boiled down:
as §1

The next assay relates to NFKB1. Briefly: In vitro transcription-translation (IVTT) assay, NFKB1 reporter. The following applies: HeLa S3 lysate, sfGFP/mCherry ratio. How it is done: In vitro transcription-translation assay setup: Each assay includes a master mix containing lysate and shared components, a 96-well plate containing compound titrations for testing, a 96-well DNA plate with reporter constructs to be tested, 96-well skirted PCR plates, and 96-well flat-bottom, black, fluorescent assay plates. Reaction materials setup: (A) Master mix—15 mL conical tube (3 mL of HeLa S3 Lysate described above; 0.6 mL of ThermoFisher Accessory Proteins (#88882); 1.2 ml of ThermoFisher Reaction Mix (#88882); 0.54 mL of nuclease-free Water); (B) 96-Well Master Mix+Compound Plate (Half-log dilutions (30 μM−0.1 μM) of 4 compounds of interest are prepared in 100% DMSO); 96-Well DNA Plate (Five DNA constructs are plated into single columns within the plate. Row 1 of the column contains nuclease free H2O, all other wells contain 110 ng/μL plasmid DNA). Reactions are started by mixing 155 μL of master mix and 3.5 μL of compound serial dilutions, then 9.1 μL of master mix+compound mixture is aliquoted across 5 96-well plates. Reactions begin with final addition of 2 μL of DNA for a 11.1 μL reaction volume in each well. The entire plate is sealed, and incubated for 2 hrs at 30° C. After 2 hrs, quench the assay using 45 μL of PBS, and transfer 50 μL to a flat-bottom black microplate Quantify the sfGFP and mCherry signals from each well on each plate, taking 3 reads of each plate, and perform data analysis below.
In vitro transcription-translation assay data analysis: Each plate is read three times in channels for both sfGFP and mCherry signals. The average signal across these 3 reads is then calculated for further analysis. Control wells containing no DNA reporter are subtracted from reporter wells in the same column to remove auto-fluorescence of the lysate. Then, the ratio of sfGFP/mCherry is calculated per well, and these ratios are averaged across the triplicate experiments on the same plate. Finally, the ratio of each titration concentration is normalized to the no drug control to create the normalized stalling metric. The error on this measurement is determined by propagating error through the averaging and normalization steps. Values are plotted and fit for IC50 determination for each test sequence and titration of compound.

SMILES strings stand for the structures.

In general, IC50 refers to the concentration at which inhibition is half-maximal. As to `O=C(NCC[C@H]1CCNCC1(F)F)O[C@@H]1[C@@H](O)CN[C@@H]1Cc1ccc(-c2cnco2)cc1` [V192894, (2R,3S,4S)-4-hydroxy-2-{[4-(1,3-oxazol-5-yl)phenyl]methyl}pyrrolidin-3-yl N-{2-[(4R)-3,3-difluoropiperidin-4-yl]ethyl}carbamate], the IC50 in the assay on MYC, in the assay with CCND1 and in the assay with NFKB1 was below 10 µM in each case.

Consider `CNC1(c2ccc(CNC(=O)O[C@@H]3[C@@H](O)CN[C@@H]3Cc3ccc(-c4cnco4)cc3)cc2)CC1` [V192288, (2R,3S,4S)-4-hydroxy-2-{[4-(1,3-oxazol-5-yl)phenyl]methyl}pyrrolidin-3-yl N-({4-[1-(methylamino)cyclopropyl]phenyl}methyl)carbamate], for which the IC50 in the assay on MYC, in the assay on CCND1 and in the assay with NFKB1 was below 10 µM throughout.

On to `O=C(NCc1cccc(F)c1)O[C@@H]1[C@@H](O)CN[C@@H]1Cc1ccc(-c2cnc(N3CC(F)(F)C3)s2)cc1` [V192410, (2R,3S,4S)-2-({4-[2-(3,3-difluoroazetidin-1-yl)-1,3-thiazol-5-yl]phenyl}methyl)-4-hydroxypyrrolidin-3-yl N-[(3-fluorophenyl)methyl]carbamate], for which the half-maximal inhibitory concentration (IC50) with MYC, in the assay on CCND1 and with NFKB1 was below 10 µM each time.

For `O=C(NCc1cccc(F)c1)O[C@@H]1[C@@H](O)CN[C@@H]1Cc1ccc(OCF)cc1` [V190507, (2R,3S,4S)-2-(4-(fluoromethoxy)benzyl)-4-hydroxypyrrolidin-3-yl (3-fluorobenzyl)carbamate], the half-inhibitory concentration (IC50) with MYC, with CCND1 and in the assay with NFKB1 was below 10 µM each time.

On to `O=C(NCc1cccc(F)c1)O[C@@H]1[C@@H](O)CN[C@@H]1Cc1ccc(-c2cnco2)nc1` [V192862, (2R,3S,4S)-4-hydroxy-2-{[6-(1,3-oxazol-5-yl)pyridin-3-yl]methyl}pyrrolidin-3-yl N-[(3-fluorophenyl)methyl]carbamate], for which the IC50 with MYC, with CCND1 and with NFKB1 was below 10 µM throughout.

As to `O=C(NCc1cccc(F)c1)O[C@@H]1[C@@H](O)CN[C@@H]1Cc1ccc(-c2cn3ccnc3s2)cc1` [V192127, (2R,3S,4S)-4-hydroxy-2-[(4-{imidazo[2,1-b][1,3]thiazol-2-yl}phenyl)methyl]pyrrolidin-3-yl N-[(3-fluorophenyl)methyl]carbamate], the IC50 in the assay with MYC, in the assay on CCND1 and in the assay on NFKB1 was below 10 µM throughout.

Regarding `O=C(NCc1cccc(F)c1)O[C@@H]1[C@@H](O)CN[C@@H]1Cc1ccc(-c2nncs2)cc1` [V192411, (2R,3S,4S)-4-hydroxy-2-{[4-(1,3,4-thiadiazol-2-yl)phenyl]methyl}pyrrolidin-3-yl N-[(3-fluorophenyl)methyl]carbamate], the IC50 in the assay with MYC, in the assay on CCND1 and with NFKB1 was below 10 µM each time.

As to `O=C(NCc1cccc(F)c1)O[C@@H]1[C@@H](O)CN[C@@H]1Cc1ccc(Oc2cncs2)cc1` [V192395, (2R,3S,4S)-4-hydroxy-2-{[4-(1,3-thiazol-5-yloxy)phenyl]methyl}pyrrolidin-3-yl N-[(3-fluorophenyl)methyl]carbamate], the 50% inhibitory concentration (IC50) with MYC, with CCND1 and in the assay with NFKB1 was below 10 µM each time.

As to `O=C(NCc1cccc(F)c1)O[C@@H]1[C@@H](O)CN[C@@H]1Cc1ccc(Oc2cccnc2)cc1` [V192398, (2R,3S,4S)-4-hydroxy-2-{[4-(pyridin-3-yloxy)phenyl]methyl}pyrrolidin-3-yl N-[(3-fluorophenyl)methyl]carbamate], the 50% inhibitory concentration (IC50) with MYC, in the assay on CCND1 and with NFKB1 was below 10 µM each time.

As for `O=C(NCc1cc(F)c(O)c(F)c1)O[C@@H]1[C@@H](O)CN[C@@H]1Cc1ccc(-c2cnco2)cc1` [V192433, (2R,3S,4S)-4-hydroxy-2-{[4-(1,3-oxazol-5-yl)phenyl]methyl}pyrrolidin-3-yl N-[(3,5-difluoro-4-hydroxyphenyl)methyl]carbamate], the concentration for half-maximal inhibition (IC50) with MYC, in the assay with CCND1 and in the assay on NFKB1 was below 10 µM each time.

Regarding `O=C(NCC[C@H]1CCNC[C@H]1F)O[C@@H]1[C@@H](O)CN[C@@H]1Cc1ccc(-c2cnco2)cc1` [V192897, (2R,3S,4S)-4-hydroxy-2-{[4-(1,3-oxazol-5-yl)phenyl]methyl}pyrrolidin-3-yl N-{2-[(3S,4R)-3-fluoropiperidin-4-yl]ethyl}carbamate], the IC50 is below 10 µM in the assay with MYC, 10 to 20 µM with CCND1 and below 10 µM in the assay with NFKB1.

As for `O=C(NCCSC(F)(F)F)O[C@@H]1[C@@H](O)CN[C@@H]1Cc1ccc(-c2cnco2)cc1` [V192442, (2R,3S,4S)-4-hydroxy-2-{[4-(1,3-oxazol-5-yl)phenyl]methyl}pyrrolidin-3-yl N-{2-[(trifluoromethyl)sulfanyl]ethyl}carbamate], the IC50 in the assay with MYC, in the assay on CCND1 and in the assay on NFKB1 was below 10 µM in each case.

Turning to `O=C(NCc1cccc(F)c1)O[C@@H]1[C@@H](O)CN[C@@H]1Cc1ccc(C(F)(F)F)cc1` [V192896, (2R,3S,4S)-4-hydroxy-2-{[4-(trifluoromethyl)phenyl]methyl}pyrrolidin-3-yl N-[(3-fluorophenyl)methyl]carbamate], the IC50 with MYC, with CCND1 and with NFKB1 was below 10 µM in each case.

As to `O=C(NCC[C@@H]1CCCN1)O[C@@H]1[C@@H](O)CN[C@@H]1Cc1ccc([N+](=O)[O-])cc1` [V192359, (2R,3S,4S)-4-hydroxy-2-[(4-nitrophenyl)methyl]pyrrolidin-3-yl N-{2-[(2S)-pyrrolidin-2-yl]ethyl}carbamate], the IC50 in the assay with MYC, in the assay with CCND1 and in the assay with NFKB1 was below 10 µM throughout.

In the case of `O=C(NCc1cnsc1)O[C@@H]1[C@@H](O)CN[C@@H]1Cc1ccc(-c2cnco2)cc1` [V192110, (2R,3S,4S)-4-hydroxy-2-(4-(oxazol-5-yl)benzyl)pyrrolidin-3-yl (isothiazol-4-ylmethyl)carbamate], the IC50 with MYC, in the assay on CCND1 and in the assay with NFKB1 was below 10 µM each time.

Regarding `O=C(NCC[C@@H]1C[C@H](C(F)(F)F)CN1)O[C@@H]1[C@@H](O)CN[C@@H]1Cc1ccc(-c2cnco2)cc1` [V192912, (2R,3S,4S)-4-hydroxy-2-{[4-(1,3-oxazol-5-yl)phenyl]methyl}pyrrolidin-3-yl N-{2-[(2S,4S)-4-(trifluoromethyl)pyrrolidin-2-yl]ethyl}carbamate], the concentration for half-maximal inhibition (IC50) with MYC, in the assay on CCND1 and in the assay with NFKB1 was below 10 µM in each case.

For `O=C(NCc1cccc(F)c1)O[C@@H]1[C@@H](O)CN[C@@H]1Cc1ccc(C(F)F)cc1` [V192274, (2R,3S,4S)-2-{[4-(difluoromethyl)phenyl]methyl}-4-hydroxypyrrolidin-3-yl N-[(3-fluorophenyl)methyl]carbamate], the concentration for half-maximal inhibition (IC50) in the assay on MYC, in the assay with CCND1 and with NFKB1 was below 10 µM each time.

As to `O=C(NCc1cccc(F)c1)O[C@@H]1[C@@H](O)CN[C@@H]1Cc1ccc(-c2cn3cc(C(F)(F)F)nc3s2)cc1` [V192874, (2R,3S,4S)-4-hydroxy-2-({4-[6-(trifluoromethyl)imidazo[2,1-b][1,3]thiazol-2-yl]phenyl}methyl)pyrrolidin-3-yl N-[(3-fluorophenyl)methyl]carbamate], the IC50 in the assay on MYC, with CCND1 and in the assay with NFKB1 was below 10 µM each time.

Turning to `O=C(NCCC1CCNCC1)O[C@@H]1[C@@H](O)CN[C@@H]1Cc1ccc(-c2ccc(Cl)s2)cc1` [V192261, (2R,3S,4S)-2-{[4-(5-chlorothiophen-2-yl)phenyl]methyl}-4-hydroxypyrrolidin-3-yl N-[2-(piperidin-4-yl)ethyl]carbamate], the IC50 in the assay with MYC, with CCND1 and in the assay on NFKB1 was below 10 µM each time.

In the case of `O=C(NCC[C@@H]1C[C@H](F)CN1)O[C@@H]1[C@@H](O)CN[C@@H]1Cc1ccc(-c2cnco2)cc1` [V192917, (2R,3S,4S)-4-hydroxy-2-{[4-(1,3-oxazol-5-yl)phenyl]methyl}pyrrolidin-3-yl N-{2-[(2R,4S)-4-fluoropyrrolidin-2-yl]ethyl}carbamate], the IC50 in the assay with MYC, in the assay with CCND1 and in the assay on NFKB1 was below 10 µM in each case.

The values above are taken from US20250129021A1, “SMALL MOLECULE PROTEIN SYNTHESIS MODULATORS” (Interdict Bio, Inc., priority 2023, published 2025).
